# Tests used:
# human MPO = molecular target: T1, human MPO (Homo sapiens, UniProt P05164); experiment: Myeloperoxidase (MPO) activity assay with tetramethyl benzidine (TMB) substrate; format: biochemical; conditions: for Ki: 50 mM sodium acetate buffer pH 5.6, read-out: Ki (inhibitory values of MPO)
# T1 construct: purchased Sigma-Aldrich
# From the text: Various methods of measuring a reduction in MPO activity are known to those of ordinary skill in the art and can be used in accordance with the present invention. For example, in one embodiment, MPO activity can be measured by combining an amount of an MPO enzyme, or a sample containing an MPO enzyme, with H2O2, a tetramethyl benzidine (TMB) substrate, and an MPO inhibitor (e.g., a compound of the present invention), and then measuring the optical density of the resulting product.
# Typically, the reaction mixture (200 μl) contained 20 mU human MPO (Sigma-Aldrich, St. Louis, Mo.), 400 nmol H2O2, 1.6 μmol of TMB, and varying concentrations of methylenedioxyphenyl ferulate (Formula (II)) or ferulylproline (Formula (XVI)).
# The reaction was performed in a volume of 200 μl with 50 mM sodium acetate buffer at pH 5.6. The reaction was initiated by adding MPO and the optical density of the product formed was then read at 650 nm in a microplate reader at various time points.
# [1] = tested on: human low-density lipoprotein (LDL); experiment: Cu (II) induced LDL oxidation, conjugated diene formation at 234 nm; format: biochemical; conditions: 10 and 25 μM compound, 100 μg LDL protein, 5 μM Cu (II), pH 7.4, room temperature (FIG. 6)
# Description: To determine the effect of the presently-disclosed compounds on low-density lipoprotein (LDL) oxidation, standard LDL oxidation reactions were carried out in the presence of methylenedioxyphenyl ferulate (FMDP; Formula (II)) and ferulylproline (Formula (XVI). Briefly, the in vitro oxidation reaction of LDL was carried out at room temperature in potassium phosphate buffer, pH 7.4. The reaction mixture contained 100 μg LDL protein and 5 μM Cu (II) with a final volume of 1 mL. The oxidation of LDL was followed by measuring the formation of a conjugated diene at 234 nm for a total of 300 min using a spectrophotometer. The time course of Cu (II) induced LDL oxidation was then performed. […] The increase in the oxidation of LDL in presence of 10 μM and 25 μM ferulylproline was attributed to the formation of Cu (II)-ferulylproline complex which would act as a pro-oxidant of LDL. Oxidation of LDL lipid by Cu (II) mediated oxidation both in the absence of any inhibitor and in the presence of 10 μM and 25 μM of methylenedioxyphenyl ferulate and ferulylproline was performed by monitoring the oxidation for 200 minutes.
# [2] = tested on: xanthine/xanthine oxidase; experiment: Superoxide mediated cytochrome c reduction catalyzed by xanthine/xanthine oxidase; format: biochemical; conditions: different concentrations of inhibitor, 549 nm (FIG. 7)
# Description: The reaction mixture contained 250 μL of 5 mM hypoxanthine (1.25 mM final concentration), 100 μL of cytochrome c in buffer, 10 μL of xanthine oxidase enzyme and different concentrations of inhibitor. The final volume was made up to 1 mL with phosphate buffer. The oxidation was monitored by scanning wavelengths between 500 nm to 600 nm with five measurements. The cycle scanning time was 30 seconds.
# [3] = Chlorotaurine formation (HOCl-mediated chlorination of taurine, TNB readout at 412 nm); conditions: various concentrations, 37° C. for 10 min, absorption 412 nm (FIG. 8)
# Description: Chlorotaurine is formed by the oxidation of taurine by the chlorinating oxidant hypochlorous acid (HOCl), which is formed by MPO-mediated 2-electron oxidation of chloride by H2O2. To determine if the compounds of the present invention were capable of inhibiting the formation of chlorotaurine, a reaction mixture was produced that contained 50 uL of 150 mM taurine, various concentrations of methylenedioxyphenyl ferulate (Formula (II)) or ferulylproline (Formula (XVI)), and 250 μL of hypochlorous acid in sodium phosphate buffer. The mixture was incubated at 37° C. for 10 min followed by addition of 60 μL of 40 mM thionitrobenzoic acid (TNB). The whole solution was made up to 1.5 mL and absorption was measured at 412 nm using a UV-Visible spectrophotometer. […] Furthermore, although both of these compounds react differently toward chlorotaurine oxidation, they seem to show specificity toward MPO inhibition.
# MPO = molecular target: T2, MPO (Homo sapiens, UniProt P05164); experiment: Analysis of whether the compounds act as MPO substrates (UV-Visible spectrum, TLC); format: biochemical
# T2 sequence (P05164 49-745): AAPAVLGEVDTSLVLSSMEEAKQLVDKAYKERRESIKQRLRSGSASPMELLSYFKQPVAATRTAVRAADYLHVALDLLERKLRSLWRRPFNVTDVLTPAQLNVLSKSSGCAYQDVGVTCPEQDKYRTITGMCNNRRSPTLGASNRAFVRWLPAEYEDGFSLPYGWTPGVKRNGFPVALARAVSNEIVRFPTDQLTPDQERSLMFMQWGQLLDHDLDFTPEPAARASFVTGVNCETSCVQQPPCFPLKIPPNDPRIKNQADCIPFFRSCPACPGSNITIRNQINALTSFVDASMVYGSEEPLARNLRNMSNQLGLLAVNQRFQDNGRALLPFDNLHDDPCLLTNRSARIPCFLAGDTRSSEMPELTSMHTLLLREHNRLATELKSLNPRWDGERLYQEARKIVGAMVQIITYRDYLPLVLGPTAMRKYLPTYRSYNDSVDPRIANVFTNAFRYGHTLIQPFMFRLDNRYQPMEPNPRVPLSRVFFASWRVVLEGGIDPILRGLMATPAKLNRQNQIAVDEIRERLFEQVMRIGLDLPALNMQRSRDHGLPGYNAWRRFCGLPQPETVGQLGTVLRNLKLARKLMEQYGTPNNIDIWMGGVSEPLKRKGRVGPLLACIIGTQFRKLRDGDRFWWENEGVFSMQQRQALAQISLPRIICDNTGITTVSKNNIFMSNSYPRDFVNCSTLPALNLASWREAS
# Description: It is known that MPO acts on a variety of substrates and, as such, it was thought that it may be theoretically possible that methylenedioxyphenyl ferulate (Formula (II)) and ferulylproline (Formula (XVI)) could be acting as MPO substrates and competitively masking the formation of products from the added substrates in the above-described experiments. […] In these experiments, a reaction mixture was produced that contained 720 μL of sodium acetate buffer, 100 μL of 100 mM H2O2, 100 μL of MPO enzyme with added compounds of the present invention, and a total volume made up to 1 mL. Upon analysis of this reaction mixture, however, there was no indication of any colored product even when the reaction mixture contained only the inhibitor and not the MPO substrate. To strengthen this finding, thin layer chromatography (TLC) was run with the MPO assay solution and inhibitor (50% ethylacetate:hexane) and spot identification was done in an iodine chamber.
structure (smiles),measurement,setting,value
COc1cc(/C=C/C(=O)N2CCCC2C(=O)O)ccc1O (centres unmarked) [ferulylproline],Ki,human MPO,4 µM
same,Inhibition of MPO activity,"human MPO; varying concentrations, OD 650 nm (FIGS. 4 and 5)",significantly inhibited MPO
same,Effect on Cu (II) induced LDL oxidation,[1],acted as a pro-oxidant reducing the lag time
same,Inhibition of superoxide mediated cytochrome c reduction,[2],inhibited the reaction
same,Inhibition of chlorotaurine formation,[3],did not cause any inhibition
same,Product formation during the MPO reaction by TLC / MPO substrate behaviour,"MPO; MPO assay solution and inhibitor, 50% ethylacetate:hexane, iodine chamber",do not act as an MPO substrate
same,Product formation in UV-Visible spectrum between 200 to 700 nm with and without MPO,"MPO; sodium acetate buffer, H2O2, MPO enzyme, no MPO substrate (FIGS. 9 and 10)",failed to show any product
COc1cc(/C=C/C(=O)Oc2ccc3c(c2)OCO3)ccc1O [methylenedioxyphenyl ferulate],Ki,human MPO,8.5 µM

# — patent US20120129818A1, “Compositions and Methods for Treatment of Cardiovascular Disease” (priority 2009, published 2012)
